In US20150273070A1, “MODIFIED RELEASE OF 4-METHYL-3-[[4-(3-PYRIDINYL)-2-PYRIMIDINYL]AMINO]-N-[5-(4-METHYL-1H-IMIDAZOL-1-YL)-3-(TRIFLOUOROMETHYL)PHENYL] BENZAMIDE SOLUBILIZED USING ORGANIC ACIDS” (Novartis AG, priority 2011, published 2015):

How the values were obtained:
[1] = Solubility of nilotinib in ethanol with citric acid; type: physicochemical
[2] = Solubility of nilotinib in lactic acid; type: physicochemical
Source text: Nilotinib solubilized modified release solid dosage forms containing lactic acid were developed. […] Surfactants and/or polymers were used to prevent the precipitation after solubilized nilotinib is released from the formulation matrix. Due to the liquid nature of lactic acid this formulation matrix is in the liquid form. However, by incorporation of additional suitable excipients, the formulation could be solidified at room temperature. This improved the physical and chemical stability of nilotinib in the formulation. In addition, the solid state also provided the opportunity to modulate the drug release rate.

- solubility of the drug in ethanol [1]: remarkably high solubility
- solubility ([2]; lactic acid, organic solvent or mixture, at 65° C.): > 600 mg/mL
SMILES: Cc1cn(-c2cc(NC(=O)c3ccc(C)c(Nc4nccc(-c5cccnc5)n4)c3)cc(C(F)(F)F)c2)cn1 [nilotinib, 4-Methyl-3-[[4-(3-pyrldinyl)-2-pyrimidinyl]amino]-N-[5-(4-methyl-1H-imidazol-1-yl)-3-(trifluoromethyl)phenyl] benzamide]
- solubility at intestinal pH ([2]; in presence of surfactants and/or polymers): could maintain its solubility at intestinal pH
